The text below walks through data of ChEMBL document CHEMBL1201862, “PubChem BioAssay data set” (2004).

The test system of experiment [1] is Vero. As to the kind of experiment: cells. Format: functional. As to conditions: Chlorocebus sabaeus.
Experiment [2] is described as follows: cytotoxicity toward DRD oncogenic fibroblasts, dose response, cell-based, non-viral oncogenic, luminescence (AID 1934). In kind it is functional. As to conditions: Homo sapiens.
Experiment [3] deals with Vero. Kind of experiment: host cell cytotoxicity of antiviral hits, dose response, cytotoxicity control for West Nile virus antiviral project, secondary assay (AID 1650). Format: functional. The conditions noted are these: Chlorocebus sabaeus.
For experiment [4], the system named is BJ. As to the kind of experiment: cytotoxicity toward BJ-TERT fibroblasts, dose response, cell-based, RAS-independent, luminescence (AID 1933). Format: functional. The conditions noted are these: Homo sapiens.
Experiment [5] relates to Vero. As to the kind of experiment: cells. Format: functional, cell-based. As to conditions: Chlorocebus sabaeus.
Experiment [6] concerns BJ. Kind of experiment: cells. The conditions noted are these: Homo sapiens. Format: functional, cell-based.
Experiment [7] relates to BJ. As to the kind of experiment: cytotoxicity toward BJ-TERT-LT-ST fibroblasts, dose response, cell-based, RAS-independent, luminescence (AID 1935).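 Also: BJ fibroblasts immortalized with TERT plus LT and ST oncogenes.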 In kind it is functional. The conditions noted are these: Homo sapiens.
Experiment [8] is described as follows: cytotoxicity toward HT-29 cells – cell-based, CellTiter-Glo luminescence, IC50, dose response (AID 1117330). Format: functional. In general terms: ATP-based viability assays read luminescence as a measure of living cells.
A short description of experiment [9]: CellTiter-Glo luminescent dose response of DLD-1 viability loss (AID 1117352). Format: functional.
Experiment [10] in a line: SNU-C1 cell viability reduction, dose response, CellTiter-Glo luminescence (AID 1117323). Format: functional, cell-based.
A short description of experiment [11]: RKO cell viability reduction, dose response, CellTiter-Glo luminescence (AID 1117322). Format: functional.
Experiment [12] is described as follows: cytotoxicity toward HCT116 cells – cell-based, CellTiter-Glo luminescence, IC50, dose response (AID 1117332). Format: functional. The conditions noted are these: HCT-116.
Experiment [13] in a line: Concentration-dependent survival of SW480 colon cancer line, luminescence detection with CellTiter-Glo, half-maximal inhibitory concentration (AID 1117338). In kind it is functional.
The target in a further experiment is Cytochrome P450 2C9 (Homo sapiens, UniProt P11712). The conditions noted are these: Potency.
Sequence of Cytochrome P450 2C9 (P11712 whole entry): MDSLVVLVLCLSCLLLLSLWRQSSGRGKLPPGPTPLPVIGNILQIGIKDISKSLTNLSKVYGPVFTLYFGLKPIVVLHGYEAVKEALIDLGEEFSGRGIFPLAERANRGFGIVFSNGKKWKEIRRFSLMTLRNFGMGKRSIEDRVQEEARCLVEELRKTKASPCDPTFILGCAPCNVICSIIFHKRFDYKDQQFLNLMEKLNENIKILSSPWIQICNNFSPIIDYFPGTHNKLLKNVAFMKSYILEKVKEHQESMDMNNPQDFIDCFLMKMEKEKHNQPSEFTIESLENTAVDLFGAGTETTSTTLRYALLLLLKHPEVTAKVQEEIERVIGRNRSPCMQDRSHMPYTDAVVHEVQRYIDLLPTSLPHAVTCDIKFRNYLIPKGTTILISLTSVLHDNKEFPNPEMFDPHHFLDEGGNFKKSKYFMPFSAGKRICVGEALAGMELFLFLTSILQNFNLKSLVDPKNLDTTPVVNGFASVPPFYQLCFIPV
The nature of experiment [14]: cytotoxicity toward Colo320 cells – cell-based, CellTiter-Glo luminescence, IC50, dose response (AID 1117334). The conditions noted are these: COLO 320. Format: functional.
The target of experiment [15] is T1, Tyrosine-protein phosphatase non-receptor type 7 (Homo sapiens, UniProt P35236).
T1 sequence (P35236 whole entry): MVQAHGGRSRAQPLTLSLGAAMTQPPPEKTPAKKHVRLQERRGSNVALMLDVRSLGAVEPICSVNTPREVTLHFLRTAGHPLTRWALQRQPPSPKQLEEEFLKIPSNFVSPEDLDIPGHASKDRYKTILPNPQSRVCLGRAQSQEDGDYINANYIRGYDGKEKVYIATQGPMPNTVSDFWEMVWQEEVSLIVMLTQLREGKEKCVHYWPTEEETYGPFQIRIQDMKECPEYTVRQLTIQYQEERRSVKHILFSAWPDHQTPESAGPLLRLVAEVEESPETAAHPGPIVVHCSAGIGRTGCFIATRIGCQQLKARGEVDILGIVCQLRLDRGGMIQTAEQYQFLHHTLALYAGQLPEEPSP
As to the kind of experiment: inhibitors of human HePTP phosphatase, […], biochemical, absorbance, leukemia target (AID 521). Format: functional.

The target of a further experiment is Prothrombin (Bos taurus, UniProt P00735). Kind of experiment: thrombin inhibition, dose response, biochemical, fluorescence polarization, uHTS hits (AID 602369). In kind it is functional. For orientation: Fluorescence polarisation rises when a labelled molecule tumbles more slowly, as on binding a larger partner.
The target in experiment [16] is 72 kDa type IV collagenase (Homo sapiens, UniProt P08253). As to the kind of experiment: Dose Response validation of uHTS RPN11 inhibitor hits using a MMP-2 Fluorescence assay. In kind it is functional.
Sequence of 72 kDa type IV collagenase (P08253 whole entry): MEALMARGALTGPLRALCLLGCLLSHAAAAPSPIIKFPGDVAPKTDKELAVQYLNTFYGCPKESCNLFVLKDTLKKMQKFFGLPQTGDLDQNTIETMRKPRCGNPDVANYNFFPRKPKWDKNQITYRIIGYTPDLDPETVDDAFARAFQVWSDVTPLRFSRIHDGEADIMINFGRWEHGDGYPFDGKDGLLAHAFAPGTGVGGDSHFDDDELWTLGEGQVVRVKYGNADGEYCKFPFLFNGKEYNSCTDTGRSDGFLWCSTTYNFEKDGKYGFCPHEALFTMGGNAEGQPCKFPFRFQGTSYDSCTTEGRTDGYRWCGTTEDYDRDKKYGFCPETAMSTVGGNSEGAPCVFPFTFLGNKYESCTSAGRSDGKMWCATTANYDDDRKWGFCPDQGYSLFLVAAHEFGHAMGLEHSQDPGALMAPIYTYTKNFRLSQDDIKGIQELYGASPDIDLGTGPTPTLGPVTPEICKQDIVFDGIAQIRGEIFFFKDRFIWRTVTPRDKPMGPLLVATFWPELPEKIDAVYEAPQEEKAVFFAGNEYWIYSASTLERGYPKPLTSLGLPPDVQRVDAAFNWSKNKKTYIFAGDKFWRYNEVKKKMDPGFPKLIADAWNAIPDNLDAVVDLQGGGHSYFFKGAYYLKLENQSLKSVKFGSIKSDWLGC
Experiment [17] addresses 26S proteasome non-ATPase regulatory subunit 14 (Homo sapiens, UniProt O00487). Kind of experiment: inhibition of proteasome subunit RPN11 – biochemical, fluorescence polarization, uHTS hits, confirmation (AID 602368). Format: functional.
Experiment [18] has as its target Photoreceptor-specific nuclear receptor (Homo sapiens, UniProt Q9Y5X4). As to the kind of experiment: NR2E3 inverse agonists, dose response, biochemical, TR-FRET (AID 463256). Format: functional. (In general: Time-resolved FRET reads energy transfer from a long-lived donor to a nearby acceptor.)
Experiment [19] addresses Peroxisome proliferator-activated receptor gamma/Nuclear receptor corepressor 2 (Homo sapiens, UniProt P37231+Q9Y618). As to the kind of experiment: Counterscreen for NR2E3 inverse agonists: TR-FRET-based biochemical high throughput dose response assay to identify inverse agonists of the interaction between peroxisome proliferator-activated receptor gamma (PPARg) and nuclear receptor co-repressor 2 (NCOR2). Format: functional.

The target in the next experiment is Kallikrein-7 (Homo sapiens, UniProt P49862). Kind of experiment: Fluorescence Intensity-based biochemical primary high throughput dose response assay to identify activators of kallikrein-7 (K7) zymogen.
Sequence of Kallikrein-7 (P49862 whole entry): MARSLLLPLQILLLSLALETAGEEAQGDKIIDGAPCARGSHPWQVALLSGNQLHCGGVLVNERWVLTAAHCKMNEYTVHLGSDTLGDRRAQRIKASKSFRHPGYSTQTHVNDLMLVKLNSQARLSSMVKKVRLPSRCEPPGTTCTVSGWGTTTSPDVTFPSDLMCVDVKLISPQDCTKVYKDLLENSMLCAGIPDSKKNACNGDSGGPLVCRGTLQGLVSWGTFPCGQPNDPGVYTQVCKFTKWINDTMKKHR
A short description of experiment [20]: cells. Format: functional, cell-based.
A short description of experiment [21]: cells. Format: functional, cell-based. This is another data set of the same source.
The target in experiment [22] is Mitogen-activated protein kinase 10 (Homo sapiens, UniProt P53779). As to the kind of experiment: Dose response biochemical screening assay for inhibitors of c-Jun N-Terminal Kinase 3 (JNK3). [Related pubchem assays: 746 ].
Sequence of Mitogen-activated protein kinase 10 (P53779 whole entry): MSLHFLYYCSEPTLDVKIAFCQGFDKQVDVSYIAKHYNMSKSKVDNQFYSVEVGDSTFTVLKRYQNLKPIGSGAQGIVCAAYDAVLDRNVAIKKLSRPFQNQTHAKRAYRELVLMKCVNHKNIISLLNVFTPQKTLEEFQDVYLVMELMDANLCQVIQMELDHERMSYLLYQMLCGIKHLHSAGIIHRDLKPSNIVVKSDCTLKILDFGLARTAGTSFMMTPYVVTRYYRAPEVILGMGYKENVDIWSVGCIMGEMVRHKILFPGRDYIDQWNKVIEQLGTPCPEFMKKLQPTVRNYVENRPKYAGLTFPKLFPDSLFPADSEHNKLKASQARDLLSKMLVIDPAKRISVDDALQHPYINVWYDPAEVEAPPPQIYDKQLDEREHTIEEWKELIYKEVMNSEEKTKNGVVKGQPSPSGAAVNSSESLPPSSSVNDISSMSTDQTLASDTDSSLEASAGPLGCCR
A short description of experiment [23]: A549 cell cytotoxicity, dose response, cytotoxicity control, plate reader, cherry-pick, antagonist series (AID 743412). In kind it is functional, cell-based.
Experiment [24] is described as follows: cells. In kind it is functional, cell-based. This is another data set of the same source.
Experiment [25] in a line: MC4R antagonists, dose response, counter-screen for LGR2 antagonist project, cell-based, plate reader, cherry pick (AID 743444).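 Also: transfected HEK 293 cells stimulated with alpha-MSH peptide; potency of inhibitors of the alpha-MSH evoked signal.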 Format: functional.
The nature of experiment [26]: HEK293 cell cytotoxicity, dose response, cytotoxicity control, plate reader, cherry-picked samples (AID 743446). In kind it is functional, cell-based.
Experiment [27] can be described thus: LGR2 antagonists, dose response, cell-based, HEK293, CRE-luciferase reporter, cherry pick, set 2 (AID 743343).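 Also: transfected cells were stimulated with diluted bursicon conditioned medium after compound addition.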 In kind it is functional.
Experiment [28] in a line: HepG2 cell cytotoxicity, dose response, cytotoxicity control, plate reader, cherry-pick, antagonist series (AID 743416). In kind it is functional, cell-based.
The target of experiment [29] is T2, Nuclear receptor subfamily 0 group B member 1 (Homo sapiens, UniProt P51843).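 Also: HEK293T cells transfected with SF-1 and DAX-1 plus StAR promoter luciferase reporter.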
T2 sequence (P51843 whole entry): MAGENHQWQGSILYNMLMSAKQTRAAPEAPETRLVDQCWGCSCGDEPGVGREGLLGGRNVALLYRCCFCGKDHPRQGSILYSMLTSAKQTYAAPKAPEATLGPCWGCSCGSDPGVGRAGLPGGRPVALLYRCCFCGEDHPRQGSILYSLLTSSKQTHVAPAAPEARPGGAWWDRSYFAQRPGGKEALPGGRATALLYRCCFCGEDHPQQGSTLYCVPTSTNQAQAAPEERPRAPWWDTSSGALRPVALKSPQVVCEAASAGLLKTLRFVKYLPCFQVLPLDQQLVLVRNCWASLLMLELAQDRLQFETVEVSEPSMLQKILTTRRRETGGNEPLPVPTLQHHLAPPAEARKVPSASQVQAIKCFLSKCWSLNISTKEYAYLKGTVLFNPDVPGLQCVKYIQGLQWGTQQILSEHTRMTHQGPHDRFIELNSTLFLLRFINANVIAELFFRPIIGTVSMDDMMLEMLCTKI
In kind it is functional, cell-based.

The next experiment deals with Protein Tat (Human immunodeficiency virus type 1 group M subtype B (isolate HXB2)(HIV-1), UniProt P04608). In kind it is functional.
Sequence of Protein Tat (P04608 whole entry): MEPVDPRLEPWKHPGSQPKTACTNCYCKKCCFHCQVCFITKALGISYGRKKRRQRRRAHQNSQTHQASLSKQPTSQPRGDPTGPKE
A short description of experiment [30]: THP-1 cell cytotoxicity, dose response, cytotoxicity control for Vif-APOBEC3G degradation inhibitor project, THP-1 cells (AID 1117359). In kind it is functional. As to conditions: Human immunodeficiency virus 1, THP-1.
Experiment [31] can be described thus: cells.
Experiment [32] in a line: inhibitors of intracellular T. cruzi replication, confirmation, NIH3T3 host cells, beta-gal luminescence (AID 2044).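 Also: intracellular parasites grown in NIH/3T3 mouse fibroblasts as host cells; luminescent beta-galactosidase reporter signal from transgenic T. cruzi replicating inside host cells; inhibitors lower the luminescence signal.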 In kind it is functional, cell-based.
A short description of experiment [33]: cytotoxicity toward NIH3T3 fibroblasts, dose response, counter-screen, cell-based, ATP luminescence, mouse fibroblasts (AID 2010).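 Also: cells exposed to compound for about 90 hours before reading.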 Format: functional.

Structures are written as SMILES. Calls of active or inactive are those of the source. A value given as a limit tells only on which side of the number the result lay.

Sequence of Photoreceptor-specific nuclear receptor (Q9Y5X4 whole entry): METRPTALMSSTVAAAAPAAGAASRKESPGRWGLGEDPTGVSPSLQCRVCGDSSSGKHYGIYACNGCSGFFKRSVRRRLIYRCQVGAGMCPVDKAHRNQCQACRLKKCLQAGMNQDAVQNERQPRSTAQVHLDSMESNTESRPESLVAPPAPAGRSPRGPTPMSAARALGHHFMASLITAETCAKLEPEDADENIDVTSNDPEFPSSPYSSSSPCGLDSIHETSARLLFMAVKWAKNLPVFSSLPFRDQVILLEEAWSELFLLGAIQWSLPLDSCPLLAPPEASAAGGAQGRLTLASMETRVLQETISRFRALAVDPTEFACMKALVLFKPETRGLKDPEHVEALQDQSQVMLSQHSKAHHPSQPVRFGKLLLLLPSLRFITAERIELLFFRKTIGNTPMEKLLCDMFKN
Sequence of 26S proteasome non-ATPase regulatory subunit 14 (O00487 whole entry): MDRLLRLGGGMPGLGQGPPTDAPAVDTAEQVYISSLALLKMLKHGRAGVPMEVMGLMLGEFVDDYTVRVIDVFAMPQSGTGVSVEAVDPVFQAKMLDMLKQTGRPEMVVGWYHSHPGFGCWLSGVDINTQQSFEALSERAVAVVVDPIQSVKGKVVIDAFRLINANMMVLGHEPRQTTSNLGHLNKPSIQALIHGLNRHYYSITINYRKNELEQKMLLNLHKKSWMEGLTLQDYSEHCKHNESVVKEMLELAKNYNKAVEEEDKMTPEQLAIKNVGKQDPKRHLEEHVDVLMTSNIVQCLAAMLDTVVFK

`C[C@H]1O[C@@H](OC2CC[C@]3(C=O)[C@H]4CC[C@]5(C)[C@@H](C6=CC(=O)OC6)CC[C@]5(O)[C@@H]4CC[C@]3(O)C2)CC2OC(C)(C)OC21` (stereo partly specified): the CC50 in the experiment with Vero [1] was 0.1 µM (active); in the experiment on Vero [3], < 0.039 µM (active). Also, the EC50 in experiment [2] was 1.14 µM (active); in the experiment with BJ [4], 1.01 µM (active); with BJ [6] it was 1.37 µM (inconclusive); with BJ [7], 1.28 µM (inconclusive). The IC50 in the experiment on Vero [5] was < 0.05 µM (active).

In the case of `CCc1cccc2c3c([nH]c12)C(CC)(CC(=O)O)OCC3` (stereo unspecified) [ETODOLAC], the IC50 in experiment [8], in experiment [9], in [10], in experiment [11], in experiment [12] and in [13] was > 20 µM (inactive) in each case. The IC50 in experiment [14] was > 20 µM (inactive). For the same compound, on Cytochrome P450 2C9, the AC50 is 39.8 µM (inconclusive).

With `C#CCn1/c(=N/C(=O)c2cccs2)sc2cccc(OC)c21`, the IC50 in [15] was > 100 µM (not active); at Prothrombin, > 100 µM (inactive); in [16], > 100 µM (inactive); in experiment [17] it was 24.9 µM (active).

Turning to `Cc1cccc(OCc2nnc(SCC(=O)NC3CCCC3)n2C)c1`, the IC50 was 6.66 µM (active) in [18] and 4.79 µM (active) in experiment [19].

As for `N#Cc1ccc2c(c1)nc1ccccn12`, on Kallikrein-7, the EC50 was > 69.6 µM (inactive).

Consider `c1ccc(-n2ncc3c(NCc4ccco4)ncnc32)cc1`, for which the half-maximal effective concentration (EC50) in the experiment “cells [20]” and in the experiment “cells [21]” was > 350 µM (not active) each time. In addition, the IC50 in [22] is on record as 60.9 µM (not active).

With `COc1ccc(/C=C(/CC(=O)NCc2ccc(Cl)cc2)c2nc3ccccc3s2)cc1`, the concentration for a half-maximal effect (EC50) on Kallikrein-7 is 2.56 µM (active).

For `O=C(CCN1C(=O)/C(=C\c2cccc(Br)c2)SC1=S)N1CCOCC1`, the CC50 in the experiment on Vero [1] is > 25 µM (active); in the experiment on Vero [3], 31.3 µM (active).

Regarding `c1ccc(Nc2nnc(-c3ccc4c(c3)OCO4)o2)cc1`, the AC50 is 10.8 µM (active) in experiment [23]; 2.76 µM (active) in [25]; 6.3 µM (active) in experiment [26]; 2.58 µM (active) in experiment [27]; 12.3 µM (active) in experiment [28]. Further, the IC50 in the experiment “cells [24]” was > 67.5 µM (inactive); in experiment [29], > 0.0926 µM (active).

Consider `Cc1cc(S(=O)(=O)N(Cc2ccccn2)Cc2ccco2)ccc1-n1cnnn1`, for which the IC50 at Protein Tat is > 100 µM (active).

Regarding `Cc1ccc(CNC(=O)CCC2CCCN(Cc3cc4ccccc4o3)C2)o1` (stereo unspecified), the CC50 in experiment [30] is 33.8 µM (active). Further, the EC50 in the experiment “cells [31]” is 0.222 µM (active); in [32] it was < 0.1 µM (active); in experiment [33] it was > 30 µM (not active).

In the case of `CC1(C)N(O)CC(c2cccs2)=[N+]1[O-]`, the IC50 in [15] is reported as > 100 µM (not active).

In general, CC50 refers to the concentration that lowers cell viability or growth by half. Broadly, the EC50 is the concentration needed to bring the measured effect to its halfway point. Broadly, the IC50 is the concentration needed to halve the response being measured. One may read the AC50 as the concentration at which the activity in the assay is half-maximal.
